Reference: patent publication US20100152434A1, “Protein Kinase-binding Nucleosides and Associated Methods” (priority 2007, published 2010)
Where two headings read alike, the source gives them in different places.

Key:
NCI-H322M = test: cells; conditions: Homo sapiens, NCI-H322M
UO-31 [1] = test: cells; conditions: Homo sapiens
UACC-62 [2] = test system: UACC-62
M14 = test: cells; conditions: Homo sapiens
HCC-2998 = test: cells; conditions: Homo sapiens
SN12C = test: cells; conditions: Homo sapiens
A549/ATCC = test: cells; conditions: Homo sapiens
MALME-3M = test: cells; conditions: Homo sapiens
CAKI-1 = test: cells; conditions: Homo sapiens
RXF 393 = test: cells; conditions: Homo sapiens
MDA-MB-435 = conditions: MDA-MB-435
U251 = test: cells; conditions: Homo sapiens
UACC-62 [3] = test: cells; conditions: Homo sapiens
CCRF-CEM = test: cells; conditions: Homo sapiens
HT29 = test: cells; conditions: Homo sapiens
OVCAR-3 = test: cells; conditions: Homo sapiens
DU-145 = test: cells; conditions: Homo sapiens
TK-10 = test: cells; conditions: Homo sapiens
COLO 205 = test: cells; conditions: Homo sapiens
MCF7 = test: cells; conditions: Homo sapiens
NCI-H226 = test: cells; conditions: Homo sapiens
UO-31 [4] = test system: UO-31
EKVX = test: cells; conditions: Homo sapiens

With CNC(=O)NC[C@H]1O[C@@H](n2cnc3c(NC(=O)Nc4ccccc4)ncnc32)[C@H](O[Si](C)(C)C(C)(C)C)[C@@H]1CC(=O)N(C)OC [Compound 13, 2′-O-(tert-Butyldimethylsilyl)-3′,5′-dideoxy-3′-[(N-methoxy-N-methylcarboxamido)methyl]-5′-[(N-methylcarbamoyl)amino]-N^6-(N-phenylcarbamoyl)adenosine] the GI50 (NCI-H322M) was > 100 µM, the CC50 (NCI-H322M; read-out: LC50) was > 100 µM and the GI50 (UO-31 [1]; UO-31) was 7.79 µM. For the same compound, the CC50 (UO-31 [1]; UO-31, read-out: LC50) was > 100 µM, the TGI (UACC-62 [2]) was >1.00E−4 Molar and the “Percent Growth” value (UACC-62 [2]; Log10 Concentration −4.0) was 39%. The “Percent Growth” value (UACC-62 [2]; Log10 Concentration −5.0) was 69%, the “Percent Growth” value (UACC-62 [2]; Log10 Concentration −6.0) was 96% and the “Percent Growth” value (UACC-62 [2]; Log10 Concentration −7.0) was 107%. For the same compound, the “Percent Growth” value (UACC-62 [2]; Log10 Concentration −8.0) was 102%, the GI50 (M14; M14) was 15.2 µM and the CC50 (M14; M14, read-out: LC50) was > 100 µM. For the same compound, the GI50 (HCC-2998; HCC 2998) was 30.6 µM, the CC50 (HCC-2998; HCC 2998, read-out: LC50) was > 100 µM and the GI50 (SN12C) was 85.3 µM. The CC50 (SN12C; read-out: LC50) was > 100 µM, the GI50 (A549/ATCC; A549) was 9.35 µM and the CC50 (A549/ATCC; A549, read-out: LC50) was > 100 µM. The GI50 (MALME-3M) was 11.4 µM, the CC50 (MALME-3M; read-out: LC50) was > 100 µM and the GI50 (CAKI-1; CAKI-1) was 53.8 µM. For the same compound, the CC50 (CAKI-1; CAKI-1, read-out: LC50) was > 100 µM, the GI50 (RXF 393; RXF 393) was 9.74 µM and the CC50 (RXF 393; RXF 393, read-out: LC50) was > 100 µM. For the same compound, the TGI (MDA-MB-435) was >1.00E−4 Molar, the “Percent Growth” value (MDA-MB-435; Log10 Concentration −4.0) was 36% and the “Percent Growth” value (MDA-MB-435; Log10 Concentration −5.0) was 51%. For the same compound, the “Percent Growth” value (MDA-MB-435; Log10 Concentration −6.0) was 98%, the “Percent Growth” value (MDA-MB-435; Log10 Concentration −7.0) was 97% and the “Percent Growth” value (MDA-MB-435; Log10 Concentration −8.0) was 100%. For the same compound, the GI50 (U251; U-251) was 5.66 µM, the CC50 (U251; U-251, read-out: LC50) was > 100 µM and the TGI (HOP-92) was 2.43E−5 Molar. For the same compound, the “Percent Growth” value (HOP-92; Log10 Concentration −4.0) was −43%, the “Percent Growth” value (HOP-92; Log10 Concentration −5.0) was 27% and the “Percent Growth” value (HOP-92; Log10 Concentration −6.0) was 67%. The “Percent Growth” value (HOP-92; Log10 Concentration −7.0) was 93%, the “Percent Growth” value (HOP-92; Log10 Concentration −8.0) was 80% and the GI50 (UACC-62 [3]; UACC-62) was 41.9 µM. For the same compound, the CC50 (UACC-62 [3]; UACC-62, read-out: LC50) was > 100 µM, the GI50 (CCRF-CEM) was 6.37 µM and the CC50 (CCRF-CEM; read-out: LC50) was > 100 µM. The TGI (SNB-19) was >1.00E−4 Molar, the “Percent Growth” value (SNB-19; Log10 Concentration −4.0) was 51% and the “Percent Growth” value (SNB-19; Log10 Concentration −5.0) was 61%. For the same compound, the “Percent Growth” value (SNB-19; Log10 Concentration −6.0) was 83%, the “Percent Growth” value (SNB-19; Log10 Concentration −7.0) was 93% and the “Percent Growth” value (SNB-19; Log10 Concentration −8.0) was 94%. For the same compound, the GI50 (HT29; HT-29) was 5.37 µM, the CC50 (HT29; HT-29, read-out: LC50) was > 100 µM and the GI50 (OVCAR-3; OVCAR-3) was 7.11 µM. For the same compound, the CC50 (OVCAR-3; OVCAR-3, read-out: LC50) was > 100 µM, the GI50 (DU-145; DU-145) was 16.6 µM and the CC50 (DU-145; DU-145, read-out: LC50) was > 100 µM. The GI50 (TK-10; TK-10) was 20.5 µM, the CC50 (TK-10; TK-10, read-out: LC50) was > 100 µM and the TGI (T-47D) was >1.00E−4 Molar. For the same compound, the “Percent Growth” value (T-47D; Log10 Concentration −4.0) was 17%, the “Percent Growth” value (T-47D; Log10 Concentration −5.0) was 56% and the “Percent Growth” value (T-47D; Log10 Concentration −6.0) was 84%. For the same compound, the “Percent Growth” value (T-47D; Log10 Concentration −7.0) was 89%, the “Percent Growth” value (T-47D; Log10 Concentration −8.0) was 90% and the GI50 (COLO 205; COLO 205) was 12.3 µM. The CC50 (COLO 205; COLO 205, read-out: LC50) was > 100 µM, the GI50 (MCF7; MCF7) was 5.59 µM and the CC50 (MCF7; MCF7, read-out: LC50) was > 100 µM. The GI50 (NCI-H226; NCI-H226) was 41.9 µM, the CC50 (NCI-H226; NCI-H226, read-out: LC50) was > 100 µM and the TGI (HS 578T) was >1.00E−4 Molar. The “Percent Growth” value (HS 578T; Log10 Concentration −4.0) was 12%, the “Percent Growth” value (HS 578T; Log10 Concentration −5.0) was 40% and the “Percent Growth” value (HS 578T; Log10 Concentration −6.0) was 82%. The “Percent Growth” value (HS 578T; Log10 Concentration −7.0) was 98%, the “Percent Growth” value (HS 578T; Log10 Concentration −8.0) was 98% and the TGI (UO-31 [4]) was >1.00E−4 Molar. The “Percent Growth” value (UO-31 [4]; Log10 Concentration −4.0) was 32%, the “Percent Growth” value (UO-31 [4]; Log10 Concentration −5.0) was 46% and the “Percent Growth” value (UO-31 [4]; Log10 Concentration −6.0) was 82%. For the same compound, the “Percent Growth” value (UO-31 [4]; Log10 Concentration −7.0) was 89%, the “Percent Growth” value (UO-31 [4]; Log10 Concentration −8.0) was 89% and the TGI (SW-620) was >1.00E−4 Molar. The “Percent Growth” value (SW-620; Log10 Concentration −4.0) was 50%, the “Percent Growth” value (SW-620; Log10 Concentration −5.0) was 65% and the “Percent Growth” value (SW-620; Log10 Concentration −6.0) was 93%. For the same compound, the “Percent Growth” value (SW-620; Log10 Concentration −7.0) was 102%, the “Percent Growth” value (SW-620; Log10 Concentration −8.0) was 99% and the GI50 (EKVX) was 26.4 µM. The CC50 (EKVX; read-out: LC50) was > 100 µM.
